In publication PMC4043666, “Mass Spectrometry Based Identification of Geometric Isomers during Metabolic Stability Study of a New Cytotoxic Sulfonamide Derivatives Supported by Quantitative Structure-Retention Relationships” (PLoS ONE, 2014):

Legend:
[1] = In vitro metabolic stability in human liver microsomes (LC-MS); assay type: in vitro ADME; details: for % of compound remaining after 120 min incubation: HLM 0.53 mg/mL, 1 mM NADPH, compound 10 µM, phosphate buffer pH 7.4, 37°C, percentage of peak area of trans isomer at start of incubation
Description: Stock solutions of the studied compounds were made at a concentration of 1 mM in DMSO:MeOH mixture (10∶90 v/v) to prevent their precipitation. For biotransformation incubations, the solution of compounds was diluted to 10 µM with the presence of 1 mM of NADPH (Sigma-Aldrich, St. Louis, MO, USA) in a potassium phosphate buffer (0.1 M, pH 7.4). Incubation was carried out in thermoblock (Labnet International, Edison, NJ, USA) at 37°C and started with the addition of pooled human liver microsomes with a final concentration of 0.53 mg/mL (Sigma-Aldrich, St. Louis, MO, USA). Directly after HLM was added and at 120 min of incubation the reaction was ended by the addition of an equal volume of ice-cold methanol with 0.1% (v/v) of formic acid. The samples were immediately centrifuged (10 min at 11700 g) and the resulting supernatant was directly analyzed or kept at −80°C until LC-MS or LC-QTOF-MS analysis.
(§1) LC-MS analysis was performed on an Agilent 1260 system coupled to a SingleQuad 6120 mass spectrometer (Agilent Technologies, Santa Clara, CA, USA). The amount of remaining parent compound was determined as a percentage of a peak area of a trans isomer at the start of the incubation.
(§2) A Poroshell C18 EC120 column (3.0×100 mm, 2.7 µm, Agilent Technologies, Santa Clara, CA, USA) was used in reversed-phase mode with gradient elution starting with 5% of phase A (0.1% formic acid in water) and 95% of phase B (0.1% formic acid in acetonitrile). […] The total analysis time was 42 min at 25°C, the flow rate was 0.25 mL/min and the injection volume was 20 µL. The mass spectrometer was equipped with an electrospray ionization source and the ionization mode was positive. The mass analyzer was set individually to each derivative to detect pseudomolecular ions [M+H^+]. The mass spectrometry detector parameters of the ESI source were as follows: nebulizer pressure 40 psi (N2), drying gas […] (N2), drying gas temperature 300°C, capillary voltage +3 kV.

[2] = Chemical stability / cis-trans isomerization in solution (LC-MS); assay type: physicochemical; details: for % of isomerization at the beginning of incubation: biotransformation incubation samples, start of incubation
Description: Additionally, chemical stability (negative control) in biotransformation experiment conditions was performed (phosphate buffer, 37°C, 2 h) to evaluate possible instability, unrelated to the activity of microsomes (including putative isomerization).
as §1, §2

[3] = RP-LC determination of chromatographic lipophilicity log kw (DryLab); assay type: physicochemical; details: Poroshell EC18 column, 30°C, acetonitrile 5-100% gradients of 30 and 60 min, calculated with DryLab
Description: (2) In order to obtain input lipophilicity data, reversed-phase liquid chromatography (RP-LC) log kw determination experiments were performed using the Agilent 1260 apparatus (Agilent Technologies, Santa Clara, CA, USA) equipped with UV and single quadrupole mass detectors, and an autosampler and column thermostat. A Poroshell EC18 150×3 mm column with a particle size of 2.7 µm was applied. Chromatographic measurements were made at 30°C with an eluent flow rate of 0.25 mL/min. Two chromatographic runs were conducted for each compound with different linear gradient times (30 and 60 min), and with an acetonitrile composition in the mobile phase increasing from 5% to 100%. The obtained retention times were further used to calculate log kw values applying the DryLab 2000 Plus software (LC Resources, Walnut Creek, CA, USA). DryLab estimated the log kw value according to the linear equation: log k = logkw+Sφ (k – retention factor, S – slope, φ – volume fraction of the organic modifier) The elution program, as well as the column, mobile phase and instrument properties were taken into account to determine the coefficients in the abovementioned equation. Two analytical runs were required to fit the data, and peak assignment was done manually to ensure the correct identification.

SMILES | % of compound remaining after 120 min incubation [1] [%] | % of isomerization at the beginning of incubation [2] [%] | logkw [3] | biotransformation reactions observed ([1]; HLM with NADPH, LC-MS/MS) | cis-trans isomerization in the studied conditions ([2]; water solution / incubation conditions)
Cc1cc(S(N)(=O)=O)c(S/C(CCc2ccccc2)=N/Nc2ccc([N+](=O)[O-])cc2)cc1Cl [Compound 8] | 58.23 | 5.25 | – | – | –
CC/C(=N/Nc1ccc([N+](=O)[O-])cc1)Sc1cc(Cl)c(C)cc1S(N)(=O)=O [1-cis] | – | – | 3.52 | – | –
Cc1cc(S(N)(=O)=O)c(S/C(=N/Nc2ccc([N+](=O)[O-])cc2)c2ccc(Cl)cc2)cc1Cl [Compound 10] | 90.80 | 7.79 | – | – | –
Cc1cc(S(N)(=O)=O)c(S/C(=N/Nc2ccc([N+](=O)[O-])cc2)c2ccc([N+](=O)[O-])cc2)cc1Cl [Compound 11] | 98.97 | 1.50 | – | – | –
CCC(=NNc1ccc([N+](=O)[O-])cc1)Sc1cc(Cl)c(C)cc1S(N)(=O)=O [Compound 1] | 53.51 | 5.84 | – | – | –
Cc1cc(S(N)(=O)=O)c(S/C(=N/Nc2ccc([N+](=O)[O-])cc2)c2ccccc2)cc1Cl [Compound 9] | 96.03 | 9.28 | – | – | –
Cc1cc(S(N)(=O)=O)c(SC(=NNc2ccc([N+](=O)[O-])cc2)c2ccc(O)c(Br)c2)cc1Cl [Compound 14] | 74.88 | – | – | reductive debromination reaction | –
CCCCC/C(=N\Nc1ccc([N+](=O)[O-])cc1)Sc1cc(Cl)c(C)cc1S(N)(=O)=O [Compound 7] | 60.90 | 5.53 | – | – | –
CC/C(=N\Nc1ccc([N+](=O)[O-])cc1)Sc1cc(Cl)c(C)cc1S(N)(=O)=O [1-trans] | – | – | 3.60 | – | –
Cc1cc(S(N)(=O)=O)c(S/C(CC(C)C)=N/Nc2ccc([N+](=O)[O-])cc2)cc1Cl [Compound 5] | 79.95 | 5.84 | – | – | –
Cc1cc(S(N)(=O)=O)c(S/C(=N/Nc2ccc([N+](=O)[O-])cc2)C(C)(C)C)cc1Cl [Compound 6] | 83.88 | 3.50 | – | – | –
Cc1cc(S(N)(=O)=O)c(S/C(=N/Nc2ccc([N+](=O)[O-])cc2)c2ccc3ccccc3c2)cc1Cl [Compound 15] | 99.40 | 4.93 | – | – | –
Cc1cc(S(N)(=O)=O)c(S/C(=N/Nc2ccc([N+](=O)[O-])cc2)C(C)C)cc1Cl [Compound 3] | 76.13 | 7.76 | – | – | –
Cc1cc(S(N)(=O)=O)c(S/C(=N/Nc2ccc([N+](=O)[O-])cc2[N+](=O)[O-])C(C)C)cc1Cl [Compound 4] | 62.86 | 0.00 | – | – | did not occur
COc1ccc(/C(=N\Nc2ccc([N+](=O)[O-])cc2)Sc2cc(Cl)c(C)cc2S(N)(=O)=O)cc1 [Compound 13] | 95.33 | 2.66 | – | – | –
CCC/C(=N\Nc1ccc([N+](=O)[O-])cc1)Sc1cc(Cl)c(C)cc1S(N)(=O)=O [Compound 2] | 75.13 | 6.52 | – | – | –
Cc1ccc(/C(=N\Nc2ccc([N+](=O)[O-])cc2)Sc2cc(Cl)c(C)cc2S(N)(=O)=O)cc1 [Compound 12] | 95.11 | 5.41 | – | – | –
